According to ChEMBL document CHEMBL1201862, “PubChem BioAssay data set” (2004):
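Results reflect a 48-hour exposure of cells in 96-well plates to compound at five concentrations. At the GI50, growth is halved.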 Activity calls are given as the source filed them. Cut-off read from the data, not from the text of the source: active = GI50 up to about 1.1 µM and inactive = higher.

Columns and labels:
Assay in all cases: NCI tumour cell line growth inhibition, 48 h
[1] = test system: 786-0
[2] = test system: A498
[3] = test system: A549
[4] = test system: ACHN
[5] = test system: CAKI-1
[6] = test system: CCRF-CEM
[7] = test system: COLO 205
[8] = test system: DLD-1
[9] = test system: DMS-114
[10] = test system: DMS-273
[11] = test system: EKVX
[12] = test system: HCC 2998
[13] = test system: HCT-116
[14] = test system: HCT-15
[15] = test system: HL-60
[16] = test system: HOP-18
[17] = test system: HOP-62
[18] = test system: HT-29
[19] = test system: IGROV-1
[20] = test system: K562
[21] = test system: KM-20L2
[22] = test system: KM12
[23] = test system: LOX IMVI
[24] = test system: LXFL 529
[25] = test system: M14
[26] = test system: M19-MEL
[27] = test system: MOLT-4
[28] = test system: Malme-3M
[29] = test system: NCI-H226
[30] = test system: NCI-H23
[31] = test system: NCI-H460
[32] = test system: OVCAR-3
[33] = test system: OVCAR-4
[34] = test system: OVCAR-5
[35] = test system: OVCAR-8
[36] = test system: RPMI-8226
[37] = test system: RXF 393
[38] = test system: SF-268
[39] = test system: SF-295
[40] = test system: SF-539
[41] = test system: SK-MEL-28
[42] = test system: SK-MEL-2
[43] = test system: SK-MEL-5
[44] = test system: SN12C
[45] = test system: SNB-75
[46] = test system: SNB-78
[47] = test system: SR
[48] = test system: SW-620
[49] = test system: TK-10
[50] = test system: U-251
[51] = test system: UACC-257
[52] = test system: UACC-62
[53] = test system: UO-31
[54] = test system: XF498
[55] = test system: HOP-92
[56] = test system: NCI-H522
[57] = test system: SK-OV-3
[58] = test system: SNB-19

COc1ccc(-c2cc(C(=O)Nc3cc(C(F)(F)F)cc(C(F)(F)F)c3)c3ccccc3n2)cc1
GI50 [1]: 11.7 µM (inactive)
GI50 [2]: 15.1 µM (inactive)
GI50 [3]: 4.71 µM (inactive)
GI50 [4]: 12.5 µM (inactive)
GI50 [5]: 11.3 µM (inactive)
GI50 [6]: 7.6 µM (inactive)
GI50 [7]: 13.4 µM (inactive)
GI50 [8]: 11.4 µM (inactive)
GI50 [9]: 6.56 µM (inactive)
GI50 [10]: 8.36 µM (inactive)
GI50 [11]: 9.06 µM (inactive)
GI50 [12]: 11.4 µM (inactive)
GI50 [13]: 6.19 µM (inactive)
GI50 [14]: 11.4 µM
GI50 [15]: 21.3 µM (inactive)
GI50 [16]: 17.7 µM (inactive)
GI50 [17]: 12.8 µM (inactive)
GI50 [18]: 9.06 µM (inactive)
GI50 [19]: 12.6 µM (inactive)
GI50 [20]: 4.89 µM (inactive)
GI50 [21]: 7.08 µM (inactive)
GI50 [22]: 13.2 µM (inactive)
GI50 [23]: 13.4 µM (inactive)
GI50 [24]: 8.83 µM (inactive)
GI50 [25]: 10.2 µM (inactive)
GI50 [26]: 17.2 µM (inactive)
GI50 [27]: 14.2 µM (inactive)
GI50 [28]: 17.9 µM (inactive)
GI50 [29]: 17.1 µM (inactive)
GI50 [30]: 5.9 µM (inactive)
GI50 [31]: 5.42 µM (inactive)
GI50 [32]: 4.93 µM (inactive)
GI50 [33]: 8.3 µM (inactive)
GI50 [34]: 24.7 µM (inactive)
GI50 [35]: 4.27 µM (inactive)
GI50 [36]: 6.27 µM (inactive)
GI50 [37]: 5.12 µM (inactive)
GI50 [38]: 14.4 µM (inactive)
GI50 [39]: 10.3 µM (inactive)
GI50 [40]: 12.3 µM (inactive)
GI50 [41]: 27.7 µM (inactive)
GI50 [42]: 12.9 µM (inactive)
GI50 [43]: 18 µM (inactive)
GI50 [44]: 10.6 µM (inactive)
GI50 [45]: 13.7 µM (inactive)
GI50 [46]: 19.5 µM (inactive)
GI50 [47]: 4.29 µM (inactive)
GI50 [48]: 7.94 µM (inactive)
GI50 [49]: 13.9 µM (inactive)
GI50 [50]: 4.28 µM (inactive)
GI50 [51]: 17.6 µM (inactive)
GI50 [52]: 21.6 µM (inactive)
GI50 [53]: 24.5 µM (inactive)
GI50 [54]: 7.31 µM (inactive)

COc1ccc2c(c1)OC[C@@H]1c3cc4c(cc3O[C@H]21)OCO4
GI50 [1]: > 100 µM (inactive)
GI50 [2]: > 100 µM (inactive)
GI50 [3]: > 100 µM (inactive)
GI50 [4]: > 100 µM (inactive)
GI50 [5]: 58.5 µM (inactive)
GI50 [6]: > 100 µM (inactive)
GI50 [7]: > 100 µM (inactive)
GI50 [8]: > 100 µM (inactive)
GI50 [9]: > 100 µM (inactive)
GI50 [10]: > 100 µM (inactive)
GI50 [11]: > 100 µM (inactive)
GI50 [12]: > 100 µM (inactive)
GI50 [13]: > 100 µM (inactive)
GI50 [14]: > 100 µM
GI50 [15]: > 100 µM (inactive)
GI50 [16]: 37.2 µM (inactive)
GI50 [17]: > 100 µM (inactive)
GI50 [55]: 70 µM (inactive)
GI50 [18]: > 100 µM (inactive)
GI50 [20]: > 100 µM (inactive)
GI50 [21]: > 100 µM (inactive)
GI50 [22]: > 100 µM (inactive)
GI50 [23]: > 100 µM (inactive)
GI50 [24]: > 100 µM (inactive)
GI50 [25]: > 100 µM (inactive)
GI50 [27]: > 100 µM (inactive)
GI50 [28]: > 100 µM (inactive)
GI50 [29]: > 100 µM (inactive)
GI50 [30]: > 100 µM (inactive)
GI50 [31]: > 100 µM (inactive)
GI50 [56]: > 100 µM (inactive)
GI50 [32]: > 100 µM (inactive)
GI50 [33]: 35.7 µM (inactive)
GI50 [34]: > 100 µM (inactive)
GI50 [35]: > 100 µM (inactive)
GI50 [36]: > 100 µM (inactive)
GI50 [37]: > 100 µM (inactive)
GI50 [38]: 75 µM (inactive)
GI50 [39]: > 100 µM (inactive)
GI50 [40]: > 100 µM (inactive)
GI50 [41]: > 100 µM (inactive)
GI50 [42]: > 100 µM (inactive)
GI50 [43]: > 100 µM (inactive)
GI50 [57]: > 100 µM (inactive)
GI50 [58]: 30.4 µM (inactive)
GI50 [45]: 11.6 µM (inactive)
GI50 [46]: > 100 µM (inactive)
GI50 [48]: > 100 µM (inactive)
GI50 [49]: > 100 µM (inactive)
GI50 [50]: > 100 µM (inactive)
GI50 [53]: > 100 µM (inactive)
GI50 [54]: > 100 µM (inactive)
